In US11324737B1, “Modulating expression level of a gene encoding a heat shock protein by treating a human subject with a nitroxide” (priority 2021, dated 2022):

Assays:
[1] = tested on: HSP90; test: Effects of Tempol on gene expression in cardiac tissue of mice, chip-based microarray; format: in vivo
Protocol: To assess the effects of Tempol on gene expression, Tempol was administered to experimental mice at a dose of 5 mg/g of food from 14 months to 31 months after birth. Mice receiving the same food without the addition of Tempol were used as a negative control. At the age of 31 months, the experimental animals were sacrificed and the hearts were surgically removed. The expression of a broad spectrum of genes in the cardiac tissue was assessed using chip-based microarray technology. Such chips are well known in the art and are widely used to assess gene expression.

[2] = tested on: HSP90; test: Treating a human subject with Tempol, serum level of HSP90 following treatment; format: in vivo; conditions: 2000 mg per day for 180 days
Protocol: (§1) A 70-kilogram human subject over the age of 65 is identified as having, or known to have, or suspected of having an increased expression level of HSP90. The human subject is administered a dose of 2000 mg of Tempol (or another nitroxide antioxidant) per day for 180 days. This may be administered in a single dose, or may be administered as a number of smaller doses over a 24-hour period: for example, four 500-mg doses at […]. Following treatment, the serum level of HSP90, is decreased.
A 70-kilogram human subject is identified as having, or known to have, or suspected of having an increased expression level of HSP90. The human subject is administered a dose of 2000 mg of Tempol (or another nitroxide antioxidant) per day for 180 days. This may be administered in a single dose, or may be administered as a number of smaller doses over a 24-hour period: for example, four 500-mg doses at […]. Following treatment, the serum level of HSP90, is decreased.
as §1, with “65 and having a cardiovascular disease” for “65”, “for an increased expression level of HSP90. Or a 70-kilogram human subject over the age of 65 is” for “as having, or”, “have a cardiovascular disease and/or” for “have, or suspected of having an”
A 70-kilogram human subject at risk of developing colorectal cancer is identified for increased expression level of HSP90. Or a 70-kilogram human subject is known to be at risk of developing colorectal cancer and/or have increased expression level of HSP90. The human subject is administered a dose of 2000 mg of Tempol (or another nitroxide antioxidant) per day for 180 days. This may be administered in a single dose, or may be administered as a number of smaller doses over a 24-hour period: for example, four 500-mg doses at […]. Following treatment, the serum level of HSP90, is decreased. […]
A 70-kilogram human subject having an infection (e.g., a bacterial, fungal, or viral infection) is identified for increased expression level of HSP90. Or a 70-kilogram human subject is known to have an infection and/or have increased expression level of HSP90. The human subject is administered a dose of 2000 mg of Tempol (or another nitroxide antioxidant) per day for 180 days. This may be administered in a single dose, or may be administered as a number of smaller doses over a 24-hour period: for example, four 500-mg doses at […]. Following treatment, the serum level of HSP90, is decreased.

## CC1(C)CC(O)CC(C)(C)N1[O] [Tempol, 4-hydroxy-2,2,6,6-tetramethylpiperidine-1-oxyl]
[1]; Tempol 5 mg/g of food from 14 months to 31 months after birth, vs same food without Tempol, cardiac tissue at 31 months
  Fold change (expression of HSP90 in cardiac tissue after Tempol administration): −2.4
[1]; Tempol 5 mg/g of food from 14 to 31 months after birth, cardiac tissue, result in words
  HSP90 expression in cardiac tissue: statistically significant decrease in expression
[2]; Example 2: 70-kilogram human subject over the age of 65 with increased expression level of HSP90
  serum level of HSP90 following treatment: decreased
[2]; Example 3: 70-kilogram human subject with increased expression level of HSP90
  serum level of HSP90 following treatment: decreased
[2]; Example 4: 70-kilogram human subject over the age of 65 having a cardiovascular disease
  serum level of HSP90 following treatment: decreased
[2]; Example 5: 70-kilogram human subject at risk of developing colorectal cancer
  serum level of HSP90 following treatment: decreased
[2]; Example 6: 70-kilogram human subject at risk of developing an autoimmune disease (e.g., rheumatoid arthritis)
  serum level of HSP90 following treatment: decreased
[2]; Example 7: 70-kilogram human subject at risk of developing a condition due to aging
  serum level of HSP90 following treatment: decreased
[2]; Example 8: 70-kilogram human subject at risk of developing a neurodegenerative disease (e.g., Parkinson's Disease)
  serum level of HSP90 following treatment: decreased
[2]; Example 9: 70-kilogram human subject having an infection (bacterial, fungal, or viral)
  serum level of HSP90 following treatment: decreased
